Laboratory results: ChEMBL document CHEMBL3885881, “DrugMatrix”

Organism: Rattus norvegicus
Experiment: DrugMatrix - Regimen: Daily Repeat
Format: toxicity, organism-based, Sprague-Dawley
Design: regimen Daily Repeat, gender Male, age 6-8 weeks
Settings: in vivo, po, route oral GAVAGE, […]; for ABSOLUTE BASOPHIL / ABSOLUTE EOSINOPHIL / BASOPHIL / NUCLEATED RED BLOOD CELLS / EOSINOPHIL / ABSOLUTE MONOCYTE / ABSOLUTE SEGMENTED NEUTROPHIL / ERYTHROCYTE COUNT / HEMATOCRIT / HEMOGLOBIN / LEUKOCYTE COUNT / LYMPHOCYTE / MEAN CORPUSCULAR HEMOGLOBIN / MEAN CORPUSCULAR HEMOGLOBIN CONCENTRATION / MEAN CORPUSCULAR VOLUME / MONOCYTE / NEUTROPHIL / PLATELET COUNT: tissue Blood; for CREATININE / POTASSIUM / TOTAL BILIRUBIN / ALANINE AMINOTRANSFERASE / ALBUMIN / ASPARTATE AMINOTRANSFERASE / BLOOD UREA NITROGEN / CARBON DIOXIDE / CHLORIDE / CHOLESTEROL / CREATINE PHOSPHOKINASE / GLUCOSE / LACTATE DEHYDROGENASE / PHOSPHORUS / SODIUM / TOTAL PROTEIN / URIC ACID / LIPASE: tissue Plasma
[1] = 0 mg/kg, 72 h, dose level Control, time 3 day
[2] = 0 mg/kg, 120 h, dose level Control, time 5 day
[3] = 100 mg/kg, 72 h, dose level Low, time 3 day
[4] = 100 mg/kg, 120 h, dose level Low, time 5 day
[5] = 750 mg/kg, 72 h, dose level High, time 3 day
[6] = 750 mg/kg, 120 h, dose level High, time 5 day

COc1cc([C@@H]2c3cc4c(cc3[C@@H](O[C@@H]3O[C@@H]5CO[C@@H](C)O[C@H]5[C@H](O)[C@H]3O)[C@H]3COC(=O)[C@H]23)OCO4)cc(OC)c1O [ETOPOSIDE]
ABSOLUTE BASOPHIL [1]: 0 CELLS/uL
ABSOLUTE EOSINOPHIL [1]: 52.33 CELLS/uL
BASOPHIL [1]: 0%
NUCLEATED RED BLOOD CELLS [1]: 0 /100WBC
CREATININE [1]: 0.33 mg/dL
POTASSIUM [1]: 5.37 MEQ/L
TOTAL BILIRUBIN [1]: 0.2 mg/dL
ABSOLUTE BASOPHIL [2]: 0 CELLS/uL
ABSOLUTE EOSINOPHIL [2]: 0 CELLS/uL
BASOPHIL [2]: 0%
EOSINOPHIL [2]: 0%
TOTAL BILIRUBIN [2]: 0.37 mg/dL
ABSOLUTE BASOPHIL [3]: 0 CELLS/uL
ABSOLUTE EOSINOPHIL [3]: 0 CELLS/uL
ABSOLUTE MONOCYTE [3]: 20.33 CELLS/uL
ABSOLUTE SEGMENTED NEUTROPHIL [3]: 390.33 CELLS/uL
BASOPHIL [3]: 0%
EOSINOPHIL [3]: 0%
ERYTHROCYTE COUNT [3]: 4.86 x10E6/uL
HEMATOCRIT [3]: 29.9%
HEMOGLOBIN [3]: 12.13 G/DL
LEUKOCYTE COUNT [3]: 5.67 x10E3/uL
LYMPHOCYTE [3]: 90%
MEAN CORPUSCULAR HEMOGLOBIN [3]: 24.93 pg
MEAN CORPUSCULAR HEMOGLOBIN CONCENTRATION [3]: 40.57 G/DL
MEAN CORPUSCULAR VOLUME [3]: 61.53 fL
MONOCYTE [3]: 0.33%
NEUTROPHIL [3]: 9.67%
NUCLEATED RED BLOOD CELLS [3]: 0 /100WBC
PLATELET COUNT [3]: 1214.33 x10E3/uL
ALANINE AMINOTRANSFERASE [3]: 36.67 u/L
ALBUMIN [3]: 3.7 G/DL
ASPARTATE AMINOTRANSFERASE [3]: 67.67 u/L
BLOOD UREA NITROGEN [3]: 7.67 mg/dL
CARBON DIOXIDE [3]: 27 mmol/L
CHLORIDE [3]: 102.67 MEQ/L
CHOLESTEROL [3]: 92 mg/dL
CREATINE PHOSPHOKINASE [3]: 255.67 u/L
CREATININE [3]: 0.23 mg/dL
GLUCOSE [3]: 185 mg/dL
LACTATE DEHYDROGENASE [3]: 162.33 u/L
PHOSPHORUS [3]: 11 mg/dL
POTASSIUM [3]: 4.69 MEQ/L
SODIUM [3]: 145 MEQ/L
TOTAL BILIRUBIN [3]: 0.1 mg/dL
TOTAL PROTEIN [3]: 5.5 G/DL
URIC ACID [3]: 0.8 mg/dL
ABSOLUTE BASOPHIL [4]: 0 CELLS/uL
ABSOLUTE EOSINOPHIL [4]: 0 CELLS/uL
ABSOLUTE MONOCYTE [4]: 12 CELLS/uL
ABSOLUTE SEGMENTED NEUTROPHIL [4]: 593.67 CELLS/uL
BASOPHIL [4]: 0%
EOSINOPHIL [4]: 0%
ERYTHROCYTE COUNT [4]: 4.82 x10E6/uL
HEMATOCRIT [4]: 30.6%
HEMOGLOBIN [4]: 12.2 G/DL
LEUKOCYTE COUNT [4]: 4.43 x10E3/uL
LYMPHOCYTE [4]: 86%
MEAN CORPUSCULAR HEMOGLOBIN [4]: 25.37 pg
MEAN CORPUSCULAR HEMOGLOBIN CONCENTRATION [4]: 39.9 G/DL
MEAN CORPUSCULAR VOLUME [4]: 63.67 fL
MONOCYTE [4]: 0.33%
NEUTROPHIL [4]: 13.67%
NUCLEATED RED BLOOD CELLS [4]: 0 /100WBC
PLATELET COUNT [4]: 1205.67 x10E3/uL
ALANINE AMINOTRANSFERASE [4]: 53.33 u/L
ALBUMIN [4]: 3.97 G/DL
ASPARTATE AMINOTRANSFERASE [4]: 81 u/L
BLOOD UREA NITROGEN [4]: 8.33 mg/dL
CHLORIDE [4]: 104.33 MEQ/L
CHOLESTEROL [4]: 87.67 mg/dL
CREATINE PHOSPHOKINASE [4]: 278.33 u/L
CREATININE [4]: 0.3 mg/dL
GLUCOSE [4]: 157 mg/dL
LACTATE DEHYDROGENASE [4]: 65.67 u/L
LIPASE [4]: 8.67 u/L
PHOSPHORUS [4]: 9.87 mg/dL
POTASSIUM [4]: 5.33 MEQ/L
SODIUM [4]: 145.8 MEQ/L
TOTAL BILIRUBIN [4]: 0.1 mg/dL
TOTAL PROTEIN [4]: 5.6 G/DL
URIC ACID [4]: 0.4 mg/dL
ABSOLUTE BASOPHIL [5]: 0 CELLS/uL
ABSOLUTE EOSINOPHIL [5]: 0 CELLS/uL
ABSOLUTE MONOCYTE [5]: 23 CELLS/uL
ABSOLUTE SEGMENTED NEUTROPHIL [5]: 326.67 CELLS/uL
BASOPHIL [5]: 0%
EOSINOPHIL [5]: 0%
ERYTHROCYTE COUNT [5]: 4.79 x10E6/uL
HEMATOCRIT [5]: 30.9%
HEMOGLOBIN [5]: 12.47 G/DL
LEUKOCYTE COUNT [5]: 4 x10E3/uL
LYMPHOCYTE [5]: 91.33%
MEAN CORPUSCULAR HEMOGLOBIN [5]: 26 pg
MEAN CORPUSCULAR HEMOGLOBIN CONCENTRATION [5]: 40.33 G/DL
MEAN CORPUSCULAR VOLUME [5]: 64.5 fL
MONOCYTE [5]: 0.67%
NEUTROPHIL [5]: 8%
NUCLEATED RED BLOOD CELLS [5]: 0 /100WBC
PLATELET COUNT [5]: 1133.33 x10E3/uL
ALANINE AMINOTRANSFERASE [5]: 36.33 u/L
ALBUMIN [5]: 3.77 G/DL
ASPARTATE AMINOTRANSFERASE [5]: 71 u/L
BLOOD UREA NITROGEN [5]: 9 mg/dL
CARBON DIOXIDE [5]: 26 mmol/L
CHOLESTEROL [5]: 79.67 mg/dL
CREATINE PHOSPHOKINASE [5]: 235.33 u/L
CREATININE [5]: 0.1 mg/dL
GLUCOSE [5]: 189 mg/dL
LACTATE DEHYDROGENASE [5]: 94.67 u/L
LIPASE [5]: 11.33 u/L
PHOSPHORUS [5]: 11.07 mg/dL
POTASSIUM [5]: 4.56 MEQ/L
SODIUM [5]: 142.5 MEQ/L
TOTAL BILIRUBIN [5]: 0.1 mg/dL
TOTAL PROTEIN [5]: 5.4 G/DL
URIC ACID [5]: 0.37 mg/dL
ABSOLUTE BASOPHIL [6]: 0 CELLS/uL
ABSOLUTE EOSINOPHIL [6]: 0 CELLS/uL
ABSOLUTE MONOCYTE [6]: 44.5 CELLS/uL
ABSOLUTE SEGMENTED NEUTROPHIL [6]: 165.5 CELLS/uL
BASOPHIL [6]: 0%
EOSINOPHIL [6]: 0%
ERYTHROCYTE COUNT [6]: 6.19 x10E6/uL
HEMATOCRIT [6]: 38.1%
HEMOGLOBIN [6]: 15.5 G/DL
LEUKOCYTE COUNT [6]: 2.85 x10E3/uL
LYMPHOCYTE [6]: 93%
MEAN CORPUSCULAR HEMOGLOBIN [6]: 25.05 pg
MEAN CORPUSCULAR HEMOGLOBIN CONCENTRATION [6]: 40.7 G/DL
MEAN CORPUSCULAR VOLUME [6]: 61.55 fL
MONOCYTE [6]: 1.5%
NEUTROPHIL [6]: 5.5%
NUCLEATED RED BLOOD CELLS [6]: 0 /100WBC
PLATELET COUNT [6]: 975 x10E3/uL
ALANINE AMINOTRANSFERASE [6]: 21.5 u/L
ALBUMIN [6]: 4.1 G/DL
ASPARTATE AMINOTRANSFERASE [6]: 87 u/L
BLOOD UREA NITROGEN [6]: 106.5 mg/dL
CARBON DIOXIDE [6]: 28 mmol/L
CHLORIDE [6]: 92 MEQ/L
CHOLESTEROL [6]: 83.5 mg/dL
CREATINE PHOSPHOKINASE [6]: 328.5 u/L
CREATININE [6]: 0.69 mg/dL
GLUCOSE [6]: 115 mg/dL
LACTATE DEHYDROGENASE [6]: 82 u/L
LIPASE [6]: 10 u/L
PHOSPHORUS [6]: 9.8 mg/dL
POTASSIUM [6]: 6.46 MEQ/L
SODIUM [6]: 133.6 MEQ/L
TOTAL BILIRUBIN [6]: 0.15 mg/dL
TOTAL PROTEIN [6]: 6.3 G/DL
URIC ACID [6]: 0.35 mg/dL
